Holding throughout (format): cell-based
Data set [1] concerns 3T3-L1 adipose cell. Briefly: MTT assay, cell viability of 3T3-L1 adipose cell. The conditions noted are these: 0.25 mM (maximal amount).
For data set [2], the system named is 3T3-L1 adipose cell. Briefly: 3T3-L1 adipose cell differentiation assay, triglyceride content per unit protein. The conditions noted are these: day 9, control 0.1% DMSO. The procedure: In the present invention, 3T3-L1 fibroblast cell is purchased from Bioresource collection and research center. Medium for 3T3-L1 fibroblast cell culture contains 10% (v/v) FBS, Dulbecco's modified Eagle's high-glucose medium containing 1% (v/v) penicillin (10000 U/ml) and streptomycin (10 mg/ml). Cell culture is performed in 37 C, 10% CO2 incubators. Subculture is performed at 80-90% cell confluence. After cell reaches 100% confluence, differentiation solution is used for differentiation. The complete differentiation takes 9 days. Differentiation solution contains 0.5 mM IBMX, 10 μg/ml insulin, 0.5 μM dexamethasone in 10% FBS DMEM. Two or three days after 3T3-L1 fibroblast cell reaching 100% confluence (day 0), the original 10% FBS DMEM is removed and differentiation solution is added. Replace cell culture medium at day 3 and day 6 with 10% FBS DMEM containing 10 μg/ml insulin. Harvest cells at day 9 of differentiation for cell morphology observation (Juan, C. C.; Chang, C. L.; Lai, Y. H.; Ho, L. T., Endothelin-1 induces lipolysis in 3T3-L1 adipocytes. Am. J. Physiol. Endocrinol. Metab. 2005, 288, E1146-52).
Mature 3T3-L1 adipose cell stores energy in the form of triglyceride of cell's oil drop. In order to study if plant essential oil is able to inhibit lipid accumulation in 3T3-L1 pre-adipose cell, we use cellular accumulated triglyceride content as an indicator of adipose cell differentiation. The examination method is as follows. Remove 3T3-L1 cell culture medium, wash cell with PBS for three times. Add protein lysis buffer (50 mM Tris-HCl, 150 mM NaCl, 0.5% sodium deoxycholate, 1% NP-40, 0.1% SDS) containing 10-fold diluted protease inhibitor into each well. Transfer mixture of scraped cells and buffer into microcentrifuge tube. Take 5 μl of homogenized cell mixture and 250 μl of reagent for reaction. The reaction is complete at room temperature in 1 hour, and then detects OD550 nm. Use OD value to calculate triglyceride concentration from a Merck multi-system calibrator generated standard curve. Determine triglyceride and protein concentration in each well, and the division of these two values (mg TG/mg protein) represents triglyceride content per unit protein in the cell. […]
Dilute Acorus essential oil (density 1.10 g/ml) to 25, 62.5, and 125 mg/ml with DMSO. Until cell growth reaches post confluence (day 0), diluted Acorus essential oil solution is added into differentiation solution in 1:1000 dilution into cell (final concentration is 25, 62.5, and 125 μg/ml). While replacing growth medium containing insulin at day 3 and day 6, replenish each concentration of Acorus essential oil in culture medium as well as the ones adding 0.1% DMSO as controls. The analysis at day 9 discovered that 25 μg/ml Acorus essential oil reduces triglyceride content per cell unit protein to 77% relative to its control. Acorus essential oil at 62.5 and 125 μg/ml essential oil reduces it to 55% and 20% relative to its control (FIG. 2a).
Ten ml of Acorus essential oil dissolved in hexane (5 ml essential oil and 5 ml hexane) is loaded into prepacked silica gel glass column and eluted by hydrophobicity (Table 2). Essential oil can be separated into 5 portions based on each component's hydrophobicity. Remove elution solvent by lypholizer, dissolve each component in 2 ml DMSO or methanol, and store it in glass vial. 3T3-L1 is used as a cell model, we add various fractions in DMSO or methanol at concentration of 50 μg/ml into cell differentiation medium and growth medium. At day 9 of complete differentiation, analyze triglyceride content per cell unit protein. […] Therefore, the second fraction has been chosen for further analysis.
After identifying the second fraction of Acorus essential oil as α-asarone and β-asarone, we further examine the effect of these two compounds on adipose cell differentiation inhibition. We dissolve α-asarone and β-asarone in DMSO to make concentration of 0.015, 0.03, 0.06, 0.13, and 0.25 M solution. […]

Data set [3] concerns PPARγ. In words: PPARγ protein expression by western blot in 3T3-L1 cell. The conditions noted are these: 3 days, α-tubulin internal control. As to the method: (§1) Western blot analysis: Prepare 12% SDS-PAGE as follows. Recipe of separating gel contains 2.5 ml of 1.5 M Tris-HCl pH 8.8, 100 μl of 10% SDS, 3 ml of acrylamide/bis (37.5:1; 40%), 4.35 ml RO water, 50 μl of 10% ammonium persulfate, and 5 μl of TEMED. Recipe of stacking gel contains 1.25 ml of 0.5 M Tris-HCl pH 6.8, 50 μl of 10% SDS, 0.065 ml of acrylamide/bis (37.5:1; 40%), 3.05 ml of RO water, 25 μl of APS and 5 μl of TEMED. Load same amount of protein in each well, and electrophoresis is performed under 100V for 2 hours. Prepare transfer buffer (10 mM CAPS-NaOH, 10% methanol, pH 11.0), and use methanol to rinse PVDF transfer membrane. After electrophoresis is complete, remove SDS-PAGE gel, cover the gel and PVDF membrane with transfer buffer rinsed 3 MM paper. Put it into transfer tank full of transfer buffer, electrophoresis under 500 mA for 1 hour. Take transfer membrane out, block it with 5% skim milk in TBST (20 mM Tris, 137 mM NaCl, 0.01% Tween-20), and wash it with TBST briefly. Add primary antibody for 2-hour reaction, wash membrane with TBST for three times, 15 minutes each. Add appropriate amount of secondary antibody for 1 hour, wash membrane with TBST for three times, 15 minutes each. In the end, evenly cover ECL on the transfer membrane, place membrane in the film cassette, and expose it to X-ray film. Develop the film for analysis.
(§2) Analyze cells of β-asarone supplement for 3 days by western analysis. The expression of PPARγ from cells treated with β-asarone at concentration of 0.03, 0.06, and 0.13 mM is 97%, 117%, and 111% relative to its normal differentiated control with no significant difference. When β-asarone reaches 0.25 mM, the expression of PPARγ reduces to 45% relative to its control (FIG. 12). In terms of another differentiation marker gene C/EBPα, the expression of C/EBPα treated with β-asarone at concentrations of 0.03 and 0.06 mM is 113% and 77% relative to its control with no statistical difference. However, when β-asarone reaches 0.13 mM and 0.25 mM, the expression of C/EBPα reduces to 43% and 33% relative to its control (FIG. 13).

In data set [4] the test system is C/EBPα. In words: C/EBPα mRNA expression by RT-PCR in 3T3-L1 cell. To be noted: 3 days, GAPDH internal control. As to the method: (§3) RNA extraction: Remove 3T3-L1 cell medium directly from 10 cm petri dish, add 1 ml of Trizol reagent, and scrape off cells. Transfer cell and reagent mixture into a microcentrifuge tube. Add 200 μl chloroform in each tube and vortex for 15 seconds until it is clouded. Leave it on ice for 2-3 minutes at 4 C, spin it at 12000 rpm for 20 minutes. Transfer supernatant to another microcentrifuge tube, add equal amount of isopropylalcohol, mix and leave it on ice for 10 minutes. Spin it at 12000 rpm for 10 minutes at 4 C. After centrifugation, remove supernatant and save RNA pellet in the bottom. Add 75% cold ethanol, spin it at 7500 rpm for 10 minutes at 4 C. Remove ethanol after centrifugation and air dry the pellet until the edge is clear. Add appropriate amount of DEPC H2O to dissolve RNA pellet, and determine RNA concentration by OD260/OD280 nm with a spectrophotometer.
(§4) RT-PCR: Take 2 μg of RNA for reverse transcription reaction. Mix RNA, DEPC H2O and 0.25 μg random primer to make total volume of 12 μl. Keep it at 70 C for 10 minutes, and then leave it on ice. Add 4 μl of 5× first-strand buffer, 2 μl of 0.1 M dithiothreitol, 1 μl of 10 mM dNTP and 1 μl of SuperScript™ II reverse transcriptase 200 U/μl. Keep it at 42 C for 1.5 hours, and then heat it at 70 C for 15 minutes to stop reverse transcription. Take 1 μl of cDNA from reverse transcription, mix with 5 μl of 10×PCR buffer, 1 μl of 10 mM dNTP, 2 μl of primer, 40.5 μl of sterile water, and 0.5 μl of Taq DNA polymerase (1 U/μl) for PCR reaction. The SEQ ID NO: 1 to SEQ ID NO: 6 is listed from the top to bottom accordingly. PCR program is listed as follows: 95 C/5 min; 25˜30 cycles of 95 C/1 min, 55 C/1 min, 72 C/1 min; 72 C/10 min, and stop reaction at 4 C.
(§5) Because PPARγ and C/EBPα are early marker genes during adipose cell differentiation, these genes have been analyzed from cells harvested after 3 days of β-asarone addition. […]

For data set [5], the system named is 3T3-L1 adipose cell. Briefly: Oil red staining of 3T3-L1 adipose cell. To be noted: 0.03, 0.06, 0.13, 0.25 mM, day 9. The procedure: Acorus essential oil inhibition effect on cell differentiation can be visualized under microscope by oil red staining. It is performed as follows. Dissolve 0.03 g of Oil red O in 10 ml of isopropylalcohol as stock solution. Mix 2.4 ml of stock solution and 1.6 ml of PBS and filter it before staining. Remove medium from cells, add appropriate amount of filtered staining solution for 15 minutes, wash cell three times with PBS for 5 minutes each, and then add 4% paraformaldehyde for 15 minutes to fix cells, repeat wash step by PBS. Add 0.1% Triton X-100 for 30 seconds, and repeat wash step by PBS. Add appropriate amount of hematoxylin for 30 seconds followed by one last wash step by PBS. Observe the image under a microscope and record the image.

The subject of data set [6] is PPARγ. Briefly: PPARγ mRNA expression by RT-PCR in 3T3-L1 cell. The conditions noted are these: 3 days, GAPDH internal control. The procedure: as §3, §4, §5
The subject of data set [7] is C/EBPα. In words: C/EBPα protein expression by western blot in 3T3-L1 cell. The conditions noted are these: 3 days, α-tubulin internal control. As to the method:
as §1, §2

Structures are written as SMILES.

`C/C=C/c1cc(OC)c(OC)cc1OC` (single isomer, unassigned) [α-asarone, reference compound]: in the data set with 3T3-L1 adipose cell [1], the “cell viability rate relative to normal differentiated control” value came out at 78%. Besides, the “triglyceride content relative to normal differentiation control” value with 3T3-L1 adipose cell [2] (0.015 mM) worked out at 107%; with 3T3-L1 adipose cell [2] (0.03 mM), 106%; in the data set with 3T3-L1 adipose cell [2] (0.06 mM), 99%; in the data set on 3T3-L1 adipose cell [2] (0.13 mM) it was 104%; in the data set with 3T3-L1 adipose cell [2] (0.25 mM), 105%.

Turning to `C/C=C\c1cc(OC)c(OC)cc1OC` (single isomer, unassigned) [β-asarone], the “PPARγ protein expression relative to normal differentiated control” value in the data set on PPARγ [3] (0.03 mM) came out at 97%; in the data set on PPARγ [3] (0.06 mM), 117%; with PPARγ [3] (0.13 mM), 111%. For the same compound, the “cell viability rate relative to normal differentiated control” value with 3T3-L1 adipose cell [1] was 79%. The figures for the “C/EBPα mRNA expression relative to normal differentiated control” value with C/EBPα [4] (0.03 mM), with C/EBPα [4] (0.06 mM) and in the data set on C/EBPα [4] (0.13 mM) were 99%, 94% and 96%, respectively. Besides, in the data set with 3T3-L1 adipose cell [5], the “oil red staining, red oil covered area” value is on record as “red oil covered area is decreasing”. In addition, the “triglyceride content relative to normal differentiation control” value came out at 101% in the data set with 3T3-L1 adipose cell [2] (0.015 mM); 90% with 3T3-L1 adipose cell [2] (0.03 mM); 91% in the data set on 3T3-L1 adipose cell [2] (0.06 mM); 66% with 3T3-L1 adipose cell [2] (0.13 mM); 47% in the data set with 3T3-L1 adipose cell [2] (0.25 mM). Besides, the “PPARγ mRNA expression relative to normal differentiated control” value in the data set with PPARγ [6] (0.03 mM) turned out to be 96%; in the data set with PPARγ [6] (0.06 mM), 94%; in the data set on PPARγ [6] (0.13 mM), 90%. In addition, the entries for the “C/EBPα protein expression relative to its control” value in the data set on C/EBPα [7] (0.03 mM), in the data set with C/EBPα [7] (0.06 mM) and in the data set on C/EBPα [7] (0.25 mM) were 113%, 77% and 33%, respectively.

For the origin of these results see patent US20110124742A1, “COMPOSITION AND METHOD OF ADIPOSE CELL DIFFERENTIATION INHIBITION” (NATIONAL YANG-MING UNIVERSITY, priority 2008, published 2011).
